Results from publication PMC10747112, “Triphenylphosphine Derivatives of Allylbenzenes Express Antitumor and Adjuvant Activity When Solubilized with Cyclodextrin-Based Formulations” (Pharmaceuticals, 2023).
Values after ≈ are worked out from the molar mass of the structure shown. Like-named read-outs stand apart in the source and are kept apart here. Marks after values point to notes of the source that are not given here.

How the values were obtained:
[1] = tested on: whole blood; test: Thrombogenicity (whole blood thrombosis); conditions: X in M-β-CD; 0.1 mg/mL; relative to control with microscopic glass particles
Text: (§1) Hemolytic activity and thrombogenicity are the primary parameters for evaluating the safety of medical formulations. The phenotypic sea urchin embryo assay developed by colleagues is a visual way to study the toxicity of formulations in vivo. The sea urchin and human genomes contain more than 7000 common genes, including orthologs associated with a number of human diseases. Therefore, sea urchins can be considered as a reliable and versatile model organism for studying the safety of new and existing cytotoxic formulations in vivo. Table 5 presents data on the % of erythrocyte hemolysis, the degree of whole blood thrombosis of apiol-PPh3 and analogues, and data of phenotypic sea urchin embryo assay. Thus, the non-toxicity of PPh3 derivatives of allylbenzenes for normal non-cancer cells, as well as the selectivity of action against cancer cells, is shown. The selectivity of cytotoxic action against cancer cells in comparison with normal cells can be explained by the fact that the PPh3- cation provides selective accumulation and reduction in the mitochondrial membrane potential of the transformed cancer cells. Cyclodextrin (M-β-CD) and heparin are non-toxic (and approved by the FDA for intravenous application).
(§2) The hemolytic activity and thrombogenicity of apiol-PPh3 and analogues were studied using an earlier published technique.

[2] = tested on: erythrocytes; test: Hemolytic activity; format: cell-based; conditions: X in M-β-CD; 0.1 mg/mL; released hemoglobin relative to 0.05% Triton X-100 control
Text: as §1, §2

[3] = tested on: A549 cells; test: MTT assay, cytotoxic activity against A549; format: cell-based; conditions: Homo sapiens
Procedure: Concentrations of the active substance varied from 10^−2 to 10^−4 M. For MTT assay and biological experiments, substances in the concentration range from 10^−3 to 10^−9 M were studied by the dilution of initial ones in a cell growth medium or buffer.
Adenocarcinomic human alveolar basal epithelial cells A549 cell lines (Manassas, VA, USA) were cultured in RPMI-1640 medium, linear cells of the embryonic kidney human epithelium (HEK293T) were grown in DMEM medium as described earlier. Cell lines were obtained from Lomonosov Moscow State University Depository of Live Systems Collection and Laboratory of Medical Biotechnology, Institute of Biomedical Chemistry (Moscow, Russia).
(§3) The cytotoxic activity of paclitaxel, Apiol-PPh3 and analogues was determined using an MTT test. Paclitaxel-adjuvant synergism coefficients (SC) were calculated as CV (paclitaxel) × CV (alone adjuvant)/CV (combo paclitaxel + adjuvant), where CV represents the cell viability. The synergy coefficient can be interpreted as strong synergy (SC > 2), synergy (2 > SC > 1.2), indifference/additivity (1.2 > SC > 0.8), antagonism (0.8 > SC > 0.5), and inhibition (SC < 0.5), as described earlier.

[4] = tested on: sea urchin embryos; test: Phenotypic sea urchin embryo assay; format: in vivo; conditions: X in M-β-CD
Text: as §1
Adult sea urchins, Paracentrotus lividus L. (Echinidae), were collected from the Mediterranean Sea on the Cyprus coast and kept in an aerated seawater tank and were used to study the cleavage alteration of Apiol-PPh3 and analogues. Experiments with sea urchin embryos comply with the requirements of biological ethics.

[5] = parameters: unit not given here; conditions: unmodified allylbenzenes; cited from earlier work
[6] = tested on: A549 cells; test: MTT assay, synergy of adjuvants with paclitaxel against A549; format: cell-based, human; conditions: X − M-β-CD, SC = CV(paclitaxel) × CV(adjuvant)/CV(combo)
Text: Apparently PPh3 derivatives effectively penetrate into cancer cells along a potential gradient, inhibit efflux proteins and mitochondrial enzymes, causing the apoptosis of cancer cells, with IC50 values being lower by two orders of magnitude than the corresponding allylbenzene (Table 3). […] For allylbenzenes, a synergy close to additivity (the cytostatic effect of adjuvant + paclitaxel is almost equal to the sum of their individual contributions) was observed; for PPh3 derivatives, a pronounced increase in the action of paclitaxel is characteristic (the cytostatic effect of adjuvant + paclitaxel is much higher (>) than the sum of their individual contributions). For apiol-PPh3, the most pronounced effect of increasing the activity of paclitaxel was observed (Figure 4b).
Figure 4 Viability of A549 cells in the presence of paclitaxel and allylbenzenes’ PPh3 derivatives in the form of complexes with M-β-CD (1:5 mol/mol). MTT assay. (a) Dose–effect graphs. (b) MTT assay results for 100 nM paclitaxel alone and combined with allylbenzenes’ PPh3 derivatives in the form of complexes with M-β-CD (1:5 mol/mol).
as §3

[7] = Solubility by UV spectroscopy (PBS, with and without M-β-CD); format: physicochemical; conditions: PBS
Procedure: On the contrary, their complexes with M-β-CD are soluble, and a clear peak in the UV spectrum is pronounced (225 nm). Based on UV spectra data in the presence of M-β-CD, the increase in solubility of apiol-PPh3 and analogues by a second order of magnitude is observed (Table 2).
The solubility of apiol and apiol-PPh3 (or analogues) in aqueous solution was determined by UV spectroscopy. UV spectra were recorded on the UltraSpec 2100 pro device (AmerSham Biosciences, Cambridge, UK) three times. The substances were dissolved in acetonitrile followed by recording the UV spectra at various cytostatics’ concentrations, and then we plotted calibration dependencies. Next, saturated solutions of substances in water were prepared, and the spectra of the aqueous solutions were recorded. Considering the extinction coefficients in water and acetonitrile to be approximately equal, the solubility was determined.

[8] = tested on: HEK293T cells; test: FTIR spectroscopy of HEK293T cells during incubation with drug (penetration/adsorption); format: cell-based, human; conditions: 60 min incubation (apiol-PPh3 in M-β-CD) or pre-incubation (doxorubicin controls); 37 °C
Text: The main cell structural units that contribute to the absorption of IR diapason can be assigned as follows (Figure 5): lipids of the cell membrane (2800–3000 cm^−1), proteins, especially transmembrane (1500–1700 cm^−1), phosphate groups of DNA (1240 cm^−1) and carbohydrates, including lipopolysaccharides (900–1100 cm^−1). Previously, we developed a technique for tracking the penetration and adsorption of the drug into cells using FTIR spectroscopy: dramatic changes in the intensity of the peaks of amide 1 and amide 2 indicate effective penetration of the drug into cells and vice versa.
Here, we present the real-time data of FTIR spectroscopy during the incubation of a suspension of HEK293T cells with apiol-PPh3 in M-β-CD (Figure 5). […] There is only a shift of the peak of amide 1 to the low-frequency region (inserts in Figure 5, the normalized intensity is shown) and amide 2 to the high-frequency region with the simultaneous appearance of the shoulder. This indicates the only adsorption of drug molecules on the cell surface, which is also confirmed by a weak increase in the intensity of the peaks at 2850–3000 cm^−1 corresponding to the valence vibrations of the CH2 groups (lipid bilayer). Thus, PPh3 derivatives show only marginal activity against normal cells.

[9] = tested on: cytochrome P450 3A4; conditions: read-out: IC50 cytochrome P450 3A4; cited from earlier work
[10] = tested on: cancer cells; parameters: method as in PMID 35128247; conditions: dillapiol 25–50 µM; cited from earlier work
[11] = A549, X in M-β-CD 1:5 mol/mol, MTT, read-out: −lg (IC50) of X in M-β-CD against A549 (converted)
[12] = A549, read-out: −lg (IC50) of X in M-β-CD against A549

SMILES | IC50 [3, 11] | −lg Kd (X − M-β-CD) [5] | Synergy Coefficients of Adjuvants and PPh3–Adjuvants with Paclitaxel [6] | IC50 [3, 12] | Solubility in PBS [7] | further results
CC(=O)O[C@H]1C(=O)[C@@]2(C)[C@H]([C@H](OC(=O)c3ccccc3)[C@]3(O)C[C@H](OC(=O)[C@H](O)[C@@H](NC(=O)c4ccccc4)c4ccccc4)C(C)=C1C3(C)C)[C@]1(OC(C)=O)CO[C@@H]1C[C@@H]2O [Paclitaxel, paclitaxel, reference compound] | 0.631 µM | – | – | – | – | Thrombosis Index [1]: 0.6 ± 0.1%; Hemolysis Index [2]: <0.5 (p = 0.012) %; Concentration Causing Changes in Sea Urchin Embryos [4]: >4 *** μM
C=CCc1cc(OC)c(OC)c(OC)c1OC [Allyltetramethoxybenzene, allyltetramethoxybenzene, reference compound] | – | 3.4 ± 0.3 | 1.4 ± 0.2 | 316 µM | 160 ± 20 µM (≈ 38.1 µg/mL) | –
COc1cccc2c1C(=O)c1c(O)c3c(c(O)c1C2=O)C[C@@](O)(C(=O)CO)C[C@@H]3O[C@H]1C[C@H](N)[C@H](O)[C@H](C)O1 [doxorubicin, reference compound] | – | – | – | – | – | changes in FTIR amide I and II peak intensity of HEK293T cells (drug penetration) [8]: Dramatic changes in the intensity of the amide 1 and amide 2 peaks
C=CCc1cc(OC)c2c(c1OC)OCO2 [Apiol, 1-allyl-2,5-dimethoxy-3,4-methylenedioxybenzene] | – | 2.6 ± 0.3 | 1.3 ± 0.2 | 251 µM | 130 ± 10 µM (≈ 28.9 µg/mL) | IC50 [9]: 7.9 µM
C=CCc1cc(OC)c2c(c1)OCO2 [Myristicin, myristicin, reference compound] | 1260 µM | 3.5 ± 0.2 | 0.9 ± 0.2 | – | – | solubility ([7]; aqueous buffer, thermodynamic from solid, read-out: Solubility in PBS): 30 ± 7 µM (≈ 5.77 µg/mL)
C=CCc1cc2c(c(OC)c1OC)OCO2 [Dillapiol, dillapiol] | 631 µM | 2.7 ± 0.5 | 1.1 ± 0.1 | – | – | effect on cell cycle / apoptosis of cancer cells [10]: induced G0/G1 cell cycle arrest
